In patent US20070123500A1, “Prodrugs of ERbeta-selective substances, processes for their preparation and pharmaceutical compositions comprising these compounds” (priority 2005, published 2007):

Assays:
[1] = target: human carboanhydrase I (Homo sapiens, UniProt P00915); assay: Carboanhydrase inhibition, photometric, nitrophenyl acetate conversion (CA I); assay type: biochemical; conditions: read-out: CAI IC50
Source text: (§1) b) Carboanhydrase Inhibition—Test Principle and Experimental Description:
(§2) Photometric determination of the inhibition of human carboanhydrase I or II by sulphonamides or sulphamates on microtitre plates with the aid of the enzymatic conversion of nitrophenyl acetate with a colour change from colourless to yellow.

[2] = target: human carboanhydrase II (Homo sapiens, UniProt P00918); assay: Carboanhydrase inhibition, photometric, nitrophenyl acetate conversion (CA II); assay type: biochemical; conditions: read-out: CAII IC50
Source text: as §1, §2

[3] = Blood-plasma concentration ratio in rat blood; assay type: in vitro ADME; conditions: freshly obtained heparinized whole blood
Procedure: (§3) a) Blood-plasma Concentration Ratio—Test Principle and Experimental Description:
(§4) The SO2—NH2 group of the substances according to the invention can lead to a concentration in erythrocytes as a result of binding to carboanhydrases.
(§5) Freshly obtained, heparinized blood from a rat is treated with a defined amount of active compound. The active compound concentration in the plasma obtained therefrom is measured against a calibration curve of spiked (with a known active compound concentration) plasma. The blood-plasma ratio is calculated from the measured concentration and the theoretical concentration.
(§6) In contrast to the results published in WO 01/91797, the concentration ratios of the compounds according to the invention between erythrocytes and plasma are not in a range from 10-1000:1, but in the range <10:1.

[4] = Blood/plasma ratio in human erythrocytes; assay type: in vitro ADME; conditions: human erythrocytes (blood)
Procedure: as §3, §4, §5, §6

Sequence of human carboanhydrase I (P00915 whole entry): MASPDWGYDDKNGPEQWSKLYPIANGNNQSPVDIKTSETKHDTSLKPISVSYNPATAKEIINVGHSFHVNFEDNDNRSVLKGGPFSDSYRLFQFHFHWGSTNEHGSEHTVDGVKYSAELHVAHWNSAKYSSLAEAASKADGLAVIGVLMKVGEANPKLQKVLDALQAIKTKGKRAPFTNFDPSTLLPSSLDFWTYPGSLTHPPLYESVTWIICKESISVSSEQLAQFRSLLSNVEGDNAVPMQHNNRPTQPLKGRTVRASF

SMILES | IC50 [1] | IC50 [2] | blood plasma ratio [3] | blood plasma ratio [4]
C=C[C@]12CC[C@]3(C)C[C@H](OC(=O)c4cccc(S(N)(=O)=O)c4)C[C@H]3[C@@H]1CCc1cc(O)ccc12 [3-Hydroxy-9α-vinyloestra-1,3,5(10)-trien-16α-yl 3′-sulphamoylbenzoate] | 3400 nM | 490 nM | – | –
C[C@]12CC[C@@H]3c4ccc(OS(N)(=O)=O)cc4CC[C@H]3[C@@H]1CC[C@@H]2O [Oestradiol 3-sulphamate, reference compound] | 157 ± 10.6 nM | – | – | –
C=C[C@]12CC[C@]3(C)[C@@H](F)[C@H](OC(=O)c4cccc(S(N)(=O)=O)c4)C[C@H]3[C@@H]1CCc1cc(O)ccc12 [17β-Fluoro-3-hydroxy-9α-vinyloestra-1,3,5(10)-trien-16α-yl 3′-sulphamoylbenzoate] | 3700 nM | 720 nM | ~3.7 | 1.2
C=C[C@]12CC[C@]3(C)[C@@H](F)[C@H](OC(=O)c4ccccc4)C[C@H]3[C@@H]1CCc1cc(O)ccc12 [17β-Fluoro-3-hydroxy-9α-vinyloestra-1,3,5(10)-trien-16α-yl benzoate, reference compound] | > 10000 nM | > 10000 nM | – | –
